Earlier results, collected in patent US20130150323A1, “USE OF ORAL HEPARIN PREPARATIONS TO TREAT URINARY TRACT DISEASES AND CONDITIONS” (Urigen Pharmaceuticals, Inc, priority 2010, published 2013).
Where two headings read alike, the source gives them in different places.

Tests used:
[1] = tested on: IC patients; details: intravesical instillations
[2] = tested on: cancer patients
[3] = tested on: IC patients; details: intravesical
[4] = tested on: bladder mucus layer of normal human volunteers; details: intravesically administered; 0.4 M potassium solution
[5] = tested on: interstitial cystitis patients; details: oral, double blind studies, 16% on placebo
[6] = oral

Molecule: C[S+](C)[O-] [DMSO, dimethylsulfoxide]
- IC patients treated with benefit [1]: ~50%

Molecule: O=S(=O)(O)CCS [Mesnex, mesna]
- frequency of adverse events (all AEs) ([2]; IV): 85%
- frequency of adverse events (all AEs) ([2]; oral): 89%

Molecule: heparin
- patients treated in whom effective [3]: approximately 50%
- effect on protamine chemical injury of mucus layer (potassium absorption, urgency and pain) [4]: reversed

Molecule: pentosanpolysulfate
- good response, patients on active drug [5]: 34%
- availability of this drug orally [6]: 2-3%
